# Measurements: patent US8999970B2, “Administration of an anti-obesity compound to individuals with renal impairment” (Arena Pharmaceuticals, Inc., priority 2010, dated 2015)
# Several values for one entry are separate records, joined by “and”; a condition that tells them apart may be missing. Identical values can stand only once.
# Assays:
# [1] = Creatinine and creatinine clearance during 52 weeks in pooled phase 3 studies; type: in vivo, human
# Method: Few patients in the APD356-009 trial developed creatinine values above or creatinine clearance values below normal (Table 12). At study entry, no patient had creatinine clearance less than 30 mL/min, and only 4 (1 randomized to lorcaserin, 3 to placebo) had values below 40 mL/min based on ideal body weight. […] Given the small number of patients with moderate or greater renal impairment in the phase 3 studies, a meaningful evaluation of the relationship between adverse events and renal impairment is not possible.
# [2] = Toxicity studies in mice (determination of NOAEL); type: in vivo, mouse
# Method: In the mouse, seizures occurred at single doses of 100 and 300 mg/kg lorcaserin, and death followed single doses of 1000 and 2000 mg/kg. In repeat dose studies in mice, mortality occurred at
# doses ≧200 mg/kg. A dose of 250 mg/kg/day produced exposure multiples of 25 and 27 times (males and females) the exposure achieved in humans at a dose of 10 mg BID. At this dose, decreased red blood cell mass, increased reticulocytosis, increased liver weight, centrilobular hepatocellular hypertrophy, increased extramedullary hematopoeisis, and thymic necrosis occurred. The NOAEL in mice was 50 mg/kg/day, which produced exposure multiples of 7.6 and 2.3 (males and females) times the exposure in humans at 10 mg BID.
structure (smiles),measurement,setting,value
"C[C@H]1CNCCc2ccc(Cl)cc21 [Lorcaserin, (R)-8-chloro-1-methyl-2,3,4,5-tetrahydro-1H-3-benzazepine]","Creatinine Clearance at Last Observation (Ideal Body Weight), Mean (SEM) Change from Baseline","[1]; Any Lorcaserin Dose, N 3746",0.25 (0.165)
same,"Creatinine Clearance at Last Observation (Ideal Body Weight), Mean (SEM) Change from Baseline","[1]; Lorcaserin 10 mg BID Pooled, N 2992",0.47 (0.181)
same,NOAEL,"[2]; both sexes, mouse, in vivo, mice",50 mg/kg/day
same,Exposure multiple of human exposure at 10 mg BID,"[2]; mice 50 mg/kg/day (NOAEL), females",2.3 times
same,Exposure multiple of human exposure at 10 mg BID,"[2]; mice 50 mg/kg/day (NOAEL), males",7.6 times
same,Exposure multiple of human exposure at 10 mg BID,"[2]; mice 250 mg/kg/day, females",27 times
same,Exposure multiple of human exposure at 10 mg BID,"[2]; mice 250 mg/kg/day, males",25 times
same,Doses at which mortality occurred,"[2]; mice, repeat dose studies",≥ 200 mg/kg
same,Single doses followed by death,[2]; mouse,1000 mg/kg and 2000 mg/kg
